Measured values as given in patent publication US11130132B2, “Microfluidic neutrophil assays and systems for disease detection” (The General Hospital Corporation, priority 2016, dated 2021).

B1: IFN-γ: immune-modulator previously reported to be elevated in septic blood, spiked into whole blood (protein, UniProt P01579 24-161, looked up)
Interferon gamma: QDPYVKEAENLKKYFNAGHSDVADNGTLFLGILKNWKEESDRKIMQSQIVSFYFKLFKNFKDDQSIQKSVETIKEDMNVKFFNSNKKKRDDFEKLTNYSVTDLNVQRKAIHELIQVMAELSPAAKTGKRKRSQMLFRG
B2: G-SCF: immune-modulator previously reported to be elevated in septic blood, spiked into whole blood (protein, UniProt P09919 31-207, looked up)
Granulocyte …: TPLGPASSLPQSFLLKCLEQVRKIQGDGAALQEKLVSECATYKLCHPEELVLLGHSLGIPWAPLSSCPSQALQLAGCLSQLHSGLFLYQGLLQALEGISPELGPTLDTLQLDVADFATTIWQQMEELGMAPALQPTQGAMPAFASAFQRRAGGVLVASHLQSFLEVSYRVLRHLAQP

System: neutrophils in whole blood
Experiment: blood-spiking with immune-modulators: spontaneous neutrophil motility in whole blood in the microfluidic device
Assay type: cell-based, human
Conditions: 37° C. 30 min before loading
Method: Prior to the addition of a blood sample, devices were primed with IMDM containing 10% FBS and 1% Fibronectin (from human plasma, Sigma) by pipetting 50 μl into the sample loading chamber and around each device, such that a dome of liquid formed on top, and the outer edge of the device in contact with the coverslip was surrounded. The devices were placed under a vacuum for at least 10 minutes, and then removed and allowed to re-pressurize and equilibrate for at least 15 minutes to remove bubbles.
Whole blood samples to be loaded in the device were diluted 1:1 in IMDM with 20% FBS and stained with Hoechst 33342 dye at 32 μM for 15 minutes prior to loading. A small droplet of 0.5 μL of stained blood was then pipetted into the center of the device using a gel-loading tip. The blood droplet is pipetted into the central chamber and time-lapse imaging of the mazes was then used to measure neutrophil behavior over a period of 4 hours.
Cell motility was imaged at 10× magnification using a fully automated fluorescent Nikon TiE inverted wide field microscope with a biochamber heated to 37° C. with 5% CO2. Each microfluidic device included 8 imaging fields, each containing one […]. Each field was imaged every 2 minutes over the course of 4 hours to allow accurate tracking of cell motility.
Automated cell tracking was performed using ImageCV, TrackPy, and SciKit-Learn packages in Python. Files were converted to standard AVI format using Nikon Elements or ImageJ. Initial processing was performed to allow brightfield tracking and included removing the background. Cell tracking was performed automatically from brightfield images for most of the time-lapse sequences. Cells were tracked by size, velocity, and directionality. These tracks were written to individual CSV files for each imaging field. The specific variables for each track included: track number, video frame, cell diameter, x position, y position, distance, and velocity. Cell motility pattern identification and definitions are detailed in Table 2. Figures were prepared using Illustrator CS5 Version 15.0.0 (Adobe Systems).
For plasma-swapping experiments, 1 mL of whole blood was centrifuged at 200 g for 10 minutes to pellet cells. The platelet-rich plasma supernatants were then drawn from the tubes and transferred into fresh tubes. Platelets were then pelleted at 1900 g for 10 minutes and the plasma fraction drawn into fresh tubes. Cell pellets were then re-suspended in the appropriate exchanged plasma and an aliquot loaded into the device. For blood-spiking experiments, immune-modulators were added to the media at 2× the target dose prior to mixing 1:1 with whole blood. Once mixed, spiked blood samples were incubated at 37° C. for 30 min prior to loading.

[1] = whole blood spiked at 0.1 ng/mL
[2] = whole blood spiked at 0.5 ng/mL
[3] = whole blood spiked at 1.0 ng/mL
[4] = whole blood spiked at 1.8 ng/mL
[5] = whole blood spiked at 0.3 ng/mL

| Molecule | Oscillations (O) [1] | Pausing [1] | Spontaneously migrating cells (N) [1] | Oscillations (O) [2] | Pausing [2] | Spontaneously migrating cells (N) [2] | Oscillations (O) [3] | Pausing [3] | Spontaneously migrating cells (N) [3] | Oscillations (O) [4] | Pausing [4] | Spontaneously migrating cells (N) [4] | Spontaneously migrating cells (N) (whole blood spiked at 2.5 ng/mL) | Oscillations (O) [5] | Pausing [5] | Spontaneously migrating cells (N) [5] |
| --- | --- | --- | --- | --- | --- | --- | --- | --- | --- | --- | --- | --- | --- | --- | --- | --- |
| TNF-α | 1.7 ± 3.4 | 4.8 ± 8.8 | 7.2 ± 13.9 | 1.3 ± 1.2 | 15.7 ± 14.2 | 25.3 ± 26.1 | 0.7 ± 1.2 | 1.3 ± 0.6 | 2.7 ± 1.2 | – | – | – | – | – | – | – |
| IL1-β: immune-modulator previously reported to be elevated in septic blood, spiked into whole blood | 1.4 ± 1.5 | 2.4 ± 2.8 | 3.8 ± 3.2 | – | – | – | 1.0 | 1.0 | 0.3 ± 0.1 | – | – | – | – | – | – | – |
| B1 | – | – | – | – | – | – | – | – | – | 4.8 ± 6.3 | 7.0 ± 6.9 | 10.8 ± 12.4 | 0 ± 0.0 | – | – | – |
| B2 | – | – | – | 0.3 ± 0.6 | 2.0 ± 1.7 | 2.3 ± 2.3 | – | – | – | – | – | – | – | 4.2 ± 9.7 | 4.7 ± 9.6 | 6.7 ± 13.6 |
